Laboratory results as given in patent publication US20250154611A1, “SYSTEMS AND METHODS TO DETECT STEM CELL STRESS AND USES THEREOF” (Wayne State University, priority 2014, published 2025).

How the values were obtained:
TSCs = test: qPCR of terminal differentiation markers in TSCs with or without 100 mM sorbitol; format: cell-based, mouse; settings: 0.5% O2, 7 days
Description: . TSCs were cultured in 0-20% O2 for 0-7 days±FGF4 as indicated, rapidly frozen, and assayed for free ATP (n=4). (FIG. 6B) At 7 days, FGF4 absence increased terminal differentiation markers 8-20 fold at 20% O2, but lower differentiation levels at 0.5% O2 were not increased by a sorbitol dose, which induces high levels of differentiation at 20% O2. TSCs were cultured for 7 days±FGF4 at 20% or 0.5% O2±100 mM sorbitol. mRNA was purified and reverse transcribed, then analyzed for relative amounts of 3 terminal differentiation markers that were normalized to housekeeping mRNAs. Triplicate experiments are shown, with mean±s.e.m. (error bars). […]. (FIG. 6D) Correspondingly, at 7 days, mitochondrial Δψm increased only at O2≥2% with FGF4 removal. TSCs were cultured for 7 days at 20% O2 (a,d), 2% O2 (b,e), or 0.5% O2 (c,f) with FGF4 (a-c) or without FGF4 (d-f) and stained with JC1. Micron bar in micrograph (a) indicates […]. Green fluorescence indicates monomeric stain and low membrane charge and red fluorescence indicates polymeric stain and high charge. For original color fluorescence figures see (Xie, Stem Cell Research, 13:478, 2014 (Xie, 2014)).
RNA isolation and quantitative reverse transcription-PCR (qRT-PCR). […] Briefly, DNase-treated total RNA was isolated following cDNA preparation using QuantiTect Reverse Transcription Kit […] (Qiagen). […]

p38MAPK = p38MAPK (Mus musculus, UniProt P47811); test: phospho-p38 western blot in mESCs under 200 mM sorbitol; format: cell-based; settings: 200 mM, persisted throughout 1 hr
Description: FIG. 14. […] Blots are representative of triplicate experiments. Phospho-proteins and their loading controls are grouped between black lines.
FIG. 15. […] Blots are representative of triplicate experiments.
Hyperosmotic activation of signaling enzymes. […] Zhong, 2010; Xie, 2011. […] To determine the kinetics of activation of these five kinases in the described system, mESCs were treated with 200 mM sorbitol for 1 hr. Expression levels of the activated (i.e., phosphorylated) enzymes were assayed by western blot analysis (FIG. 14), including phospho-p38MAPK, phospho-JNK, phospho-MEK1/2, and phospho-AKT (the downstream effector of PI3K signaling).
Efficacy of enzyme inhibitors.

mESCs = test: RT-qPCR of lineage markers Dab2, Lrp2, Fgf5 in mESC monolayer; format: cell-based, mouse; settings: 24 hr
Text: FIGS. 16A-16E. Hyperosmotic stress in mESCs impacts transcription factor expression at protein and mRNA levels. (FIG. 16A) The inner cell mass (ICM) of the blastocyst coexpresses Oct4/Rex1/Nanog in pluripotent cells at E3.5. After E3.5 a Rex1 subpopulation delaminates from the ICM and expresses primitive endoderm (PrEndo) marker, Lrp2, at E3.5 and extraembryonic endoderm (ExEndo) marker, Dab2, at E4.5. At E4.75, Rex1 decreases in the remaining cells of the ICM and, by E5.5, fibroblast growth factor (FGF)5 is expressed in embryonic ectoderm (EmEcto). […] (FIG. 16C) Total RNA was isolated and subjected to reverse transcription to form complementary DNA (cDNA). Real-time quantitative PCR (RTqPCR) was performed with Oct4, Nanog, and Rex1 primers. Histograms represent relative fold change in mRNA expression using the ddCt method. (FIG. 16D) mESCs in monolayer were incubated±sorbitol and ±LIF for 24 hr. Dab2, Lrp2, and Fgf5 mRNA transcript levels were examined by RT-qPCR. […] Error flags are the standard error of the mean (n=3). “a” indicates significant difference for sorbitol +LIF compared with LIF− at 24 hr. […]
RT-qPCR analysis. mESCs were trypsinized and harvested for RT-Qpcr analysis using a 7500 Fast Real Time PCR System (Applied Biosystems). […] RNA content was measured using ND-1000 Spectrophotometer (NanoDrop and ThermoScientific, Wilmington, DE). Complementary DNA (cDNA) was synthesized from 50 to 100 ng of total RNA using QuantiTect Reverse Transcription Kit (Qiagen) according to the manufacturer's instructions, and diluted 1:5. […]
Primer pairs were checked for specificity using BLAST analysis and were checked by both agarose gel electrophoresis and thermal dissociation curves to ensure amplification of a single product, and to rule out formation of primer dimers during the RT-qPCR. […] The expression of the target genes was quantified against that of two internal reference genes, glyceraldehyde-3-phosphate dehydrogenase (GAPDH) and 18s ribosomal RNA subunit (18s rRNA). […] Fold change was determined using the ddCt method. […]

[1] = 200 mM +LIF, vs time-matched +LIF and -LIF controls

Sequence of p38MAPK (P47811 whole entry): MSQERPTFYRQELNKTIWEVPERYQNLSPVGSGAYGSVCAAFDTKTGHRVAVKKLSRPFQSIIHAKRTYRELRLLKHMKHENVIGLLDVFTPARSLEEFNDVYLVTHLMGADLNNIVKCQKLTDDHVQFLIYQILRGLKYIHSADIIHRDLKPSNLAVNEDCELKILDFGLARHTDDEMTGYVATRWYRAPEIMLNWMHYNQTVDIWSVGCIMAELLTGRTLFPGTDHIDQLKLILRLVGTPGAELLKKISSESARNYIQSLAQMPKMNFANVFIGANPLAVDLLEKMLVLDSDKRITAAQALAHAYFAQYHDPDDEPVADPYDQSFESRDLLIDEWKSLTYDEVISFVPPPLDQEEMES

In the case of `OC[C@@H](O)[C@@H](O)[C@H](O)[C@@H](O)CO` [sorbitol], the “mRNA expression of terminal differentiation markers PL1, Plf, synTa” value (TSCs) is reported as “did not increase”, the “time at which activated p38MAPK was first detected” value (p38MAPK) is reported as 10 min and the “Dab2 mRNA expression” value (mESCs; [1]) is reported as “significantly higher”. The “Lrp2 mRNA expression” value (mESCs; [1]) was “significantly higher” and the “upregulation of EmEcto marker Fgf5 mRNA” value (mESCs; 200 mM) was “suppressed”.
